From patent publication US9510592B2, “Pesticidal compositions and processes related thereto” (Dow AgroSciences LLC, priority 2012, dated 2016)

These compounds were tested on Beet Armyworm (Spodoptera exigua) (assay: Bioassay on Beet Armyworm (BAW), 128-well diet tray assay). Settings: percent mortality of second instar larvae, 50 μg/cm^2 on artificial diet, five to seven days, 25° C.; Table 3.
Type: in vivo
Description: Certain molecules disclosed in this document were tested against BAW and CEW and CL using procedures described in the following examples. In the reporting of the results, the “BAW & CEW & CL Rating Table” was used (See Table Section).
Bioassays on BAW (Spodoptera exigua)
Bioassays on BAW were conducted using a 128-well diet tray assay. one to five second instar BAW larvae were placed in each well (3 mL) of the diet tray that had been previously filled with 1 mL of artificial diet to which 50 μg/cm^2 of the test compound (dissolved in 50 μL of 90:10 acetone-water mixture) had been applied (to each of eight wells) and then allowed to dry. Trays were covered with a clear self-adhesive cover, and held at 25° C., 14:10 light-dark for five to seven days. Percent mortality was recorded for the larvae in each well; activity in the eight wells was then averaged. The results are indicated in the table entitled “Table 3: Assay Results” (See Table Section).

Row | SMILES | BAW Rating
1 | FC(F)(F)CNC(=S)CNC(=S)c1ccc(/C=C/C(c2cc(Cl)c(Cl)c(Cl)c2)C(F)(F)F)cc1Br (stereo not drawn) [AC90, (E)-2-Bromo-N-(2-thioxo-2-((2,2,2-trifluoroethyl)amino)ethyl)-4-(4,4,4-trifluoro-3-(3,4,5-trichlorophenyl)but-1-en-1-yl)benzothioamide] | A (50-100)
2 | O=C(NCC(=S)NCC(F)(F)F)c1ccc(/C=C/C(c2cc(Cl)c(Cl)c(Cl)c2)C(F)(F)F)cc1Br (stereo not drawn) [AC92, (E)-2-Bromo-N-(2-thioxo-2-((2,2,2-trifluoroethyl)amino)ethyl)-4-(4,4,4-trifluoro-3-(3,4,5-trichlorophenyl)but-1-en-1-yl)benzamide] | A (50-100)
3 | FC(F)(F)C(/C=C/c1ccc(-n2cncn2)cc1)c1cc(Cl)cc(Cl)c1 (stereo not drawn) [DC1, (E)-1-(4-(3-(3,5-Dichlorophenyl)-4,4,4-trifluorobut-1-en-1-yl)phenyl)-1H-1,2,4-triazole] | A (50-100)
4 | FC(F)(F)c1cc(C(/C=C/c2ccc(-n3cncn3)cc2)C(F)(F)F)cc(C(F)(F)F)c1 (stereo not drawn) [DC16] | A (50-100)
5 | Cc1cc(/C=C/C(c2cc(Cl)c(F)c(Cl)c2)C(F)(F)F)ccc1C(=O)NCC(=O)NCC(F)(F)F (stereo not drawn) [AC69] | A (50-100)
6 | FC(F)(F)C(/C=C/c1ccc(-n2cncn2)c(Cl)c1)c1cc(Cl)cc(Cl)c1 (stereo not drawn) [DC50] | A (50-100)
7 | Cc1cc(/C=C/C(c2cc(Cl)cc(Cl)c2)C(F)(F)F)ccc1C(=S)NCc1ccc(Cl)nc1 (stereo not drawn) [AC115, (E)-N-((6-Chloropyridin-3-yl)methyl)-4-(3-(3,5-dichlorophenyl)-4,4,4-trifluorobut-1-en-1-yl)-2-methylbenzothioamide] | A (50-100)
8 | Cc1cc(/C=C/C(c2cc(Cl)c(F)c(Cl)c2)C(F)(F)F)ccc1C(=O)NCc1ccc(Cl)cn1 (stereo not drawn) [AC53] | A (50-100)
9 | O=C(NC1CSC1)c1ccc(/C=C/C(c2cc(Cl)c(Cl)c(Cl)c2)C(F)(F)F)cc1Br (stereo not drawn) [AC32] | A (50-100)
10 | O=C(NC1CCN(C(=O)CC(F)(F)F)CC1)c1ccc(/C=C/C(c2cc(Cl)c(Cl)c(Cl)c2)C(F)(F)F)cc1Br (stereo not drawn) [AC104, (E)-2-Bromo-4-(4,4,4-trifluoro-3-(3,4,5-trichlorophenyl)but-1-en-1-yl)-N-(1-(3,3,3-trifluoropropanoyl)piperidin-4-yl)benzamide] | A (50-100)
11 | CCNC(=S)NCc1ccc(/C=C/C(c2cc(Cl)c(Cl)c(Cl)c2)C(F)(F)F)cc1Cl (stereo not drawn) [CC37, (E)-1-(2-Chloro-4-(4,4,4-trifluoro-3-(3,4,5-trichlorophenyl)but-1-en-1-yl)benzyl)-3-ethylthiourea] | A (50-100)
12 | Fc1c(Cl)cc(C(/C=C/c2ccc3c(c2)CCC3NCCC(F)(F)F)C(F)(F)F)cc1Cl (stereo not drawn) [BC10, (E)-5-(3-(3,5-Dichloro-4-fluorophenyl)-4,4,4-trifluorobut-1-en-1-yl)-N-(3,3,3-trifluoropropyl)-2,3-dihydro-1H-inden-1-amine] | A (50-100)
13 | Cc1cc(/C=C/C(c2cc(Cl)cc(Cl)c2)C(F)(F)F)ccc1C(=O)NCc1cnc(Cl)s1 (stereo not drawn) [AC15] | A (50-100)
14 | Cc1cc(/C=C/C(c2cc(Cl)c(Cl)c(Cl)c2)C(F)(F)F)ccc1C(=O)NCc1ccc(Cl)nc1 (stereo not drawn) [AC22] | A (50-100)
15 | O=C(NC1CS(=O)(=O)C1)c1ccc(/C=C/C(c2cc(Cl)c(Cl)c(Cl)c2)C(F)(F)F)cc1Cl (stereo not drawn) [AC30] | A (50-100)
16 | O=C(CNC(=O)c1ccc(/C=C/C(c2ccc(F)c(Cl)c2)C(F)(F)F)cc1Br)NCC(F)(F)F (stereo not drawn) [AC99] | A (50-100)
17 | O=C(NCc1ccc(Cl)nc1)c1ccc(/C=C/C(c2cc(Cl)c(Cl)c(Cl)c2)C(F)(F)F)cc1Cl (stereo not drawn) [AC28] | A (50-100)
18 | O=C(NCc1ccc(Cl)nc1)c1ccc(/C=C/C(c2cc(Cl)c(F)c(Cl)c2)C(F)(F)F)cc1Br (stereo not drawn) [AC63] | A (50-100)
19 | Cc1cc(/C=C/C(c2cc(Cl)cc(Cl)c2)C(F)(F)F)ccc1C(=O)NC1CS(=O)(=O)C1 (stereo not drawn) [AC13] | A (50-100)
20 | FC(F)(F)C(/C=C/c1ccc(CNc2ccccn2)c(Cl)c1)c1cc(Cl)c(Cl)c(Cl)c1 (stereo not drawn) [CC43, (E)-N-(2-Chloro-4-(4,4,4-trifluoro-3-(3,4,5-trichlorophenyl)but-1-en-1-yl)benzyl)pyridin-2-amine] | A (50-100)

Row | SMILES | BAW Rating
21 | Cc1cc(/C=C/C(c2cc(Cl)c(F)c(Cl)c2)C(F)(F)F)ccc1C(=O)NC1CCOCC1 (stereo not drawn) [AC52] | A (50-100)
22 | N#Cc1cc(/C=C/C(c2cc(Cl)c(Cl)c(Cl)c2)C(F)(F)F)ccc1-n1cnc(N)n1 (stereo not drawn) [DC41, (E)-2-(3-Amino-1H-1,2,4-triazol-1-yl)-5-(4,4,4-trifluoro-3-(3,4,5-trichlorophenyl)but-1-en-1-yl)benzonitrile] | A (50-100)
23 | O=C(NCc1ccc(/C=C/C(c2cc(Cl)c(Cl)c(Cl)c2)C(F)(F)F)cc1Br)C1CC1 (stereo not drawn) [CC26] | A (50-100)
24 | FC(F)(F)C(/C=C/c1ccc(-n2cncn2)c(Cl)c1)c1cc(Cl)c(Cl)c(Cl)c1 (stereo not drawn) [DC49] | A (50-100)
25 | O=C(NC1CS(=O)(=O)C1)c1ccc(/C=C/C(c2cc(Cl)cc(Cl)c2)C(F)(F)F)cc1F (stereo not drawn) [AC83, (E)-4-(3-(3,5-Dichlorophenyl)-4,4,4-trifluorobut-1-en-1-yl)-N-(1,1-dioxidothietan-3-yl)-2-fluorobenzamide] | A (50-100)
26 | Cc1cc(/C=C/C(c2cc(Cl)cc(Cl)c2)C(F)(F)F)ccc1C(=O)NCc1ccccn1 (stereo not drawn) [AC12] | A (50-100)
27 | O=C(CC(F)(F)F)NCc1ccc(/C=C/C(c2cc(Cl)cc(Cl)c2)C(F)(F)F)cc1Cl (stereo not drawn) [CC9] | A (50-100)
28 | Cc1cc(/C=C/C(c2cc(Cl)cc(Cl)c2)C(F)(F)F)ccc1C(=O)NCc1cnccn1 (stereo not drawn) [AC43] | A (50-100)
29 | Cc1cc(/C=C/C(c2cc(Cl)cc(Cl)c2)C(F)(F)F)ccc1C(=O)NCc1ccccc1F (stereo not drawn) [AC9] | A (50-100)
30 | Cc1cc(/C=C/C(c2cc(Cl)cc(Cl)c2)C(F)(F)F)ccc1-n1cncn1 (stereo not drawn) [DC62] | A (50-100)
31 | O=C(NCCc1ccc(Cl)nc1)c1ccc(/C=C/C(c2cc(Cl)c(Cl)c(Cl)c2)C(F)(F)F)cc1Br (stereo not drawn) [AC113] | B (More than 0-Less than 50)
32 | O=C(CNC(=O)c1ccc(/C=C/C(c2cc(Cl)c(F)c(Cl)c2)C(F)(F)F)cc1F)NCC(F)(F)F (stereo not drawn) [AC68] | A (50-100)
33 | FC(F)(F)C(/C=C/c1ccc(-n2cncn2)cc1)c1ccc(Cl)c(Cl)c1 (stereo not drawn) [DC12] | A (50-100)
34 | O=C(NCc1ccc(/C=C/C(c2cc(Cl)c(Cl)c(Cl)c2)C(F)(F)F)cc1)C1CC1 (stereo not drawn) [CC5] | A (50-100)
35 | COc1c(Cl)cc(C(/C=C/c2ccc(-n3cncn3)c(C#N)c2)C(F)(F)F)cc1Cl (stereo not drawn) [DC34] | A (50-100)
36 | Cc1cc(/C=C/C(c2cc(Cl)c(F)c(Cl)c2)C(F)(F)F)ccc1C(=O)NCc1ccc(Cl)nc1 (stereo not drawn) [AC38] | A (50-100)
37 | CONC(=O)CNC(=O)c1ccc(/C=C/C(c2cc(Cl)c(Cl)c(Cl)c2)C(F)(F)F)cc1Br (stereo not drawn) [AC110] | A (50-100)
38 | O=C(Cn1ncc2cc(/C=C/C(c3cc(Cl)c(F)c(Cl)c3)C(F)(F)F)ccc2c1=O)NCC(F)(F)F (stereo not drawn) [BC14, (E)-2-(6-(3-(3,5-Dichloro-4-fluorophenyl)-4,4,4-trifluorobut-1-en-1-yl)-1-oxophthalazin-2(1H)-yl)-N-(2,2,2-trifluoroethyl)acetamide] | A (50-100)
39 | FC(F)(F)C(/C=C/c1ccc(-n2cncn2)cc1Cl)c1cc(Cl)c(Cl)c(Cl)c1 (stereo not drawn) [DC66] | A (50-100)
